From US5358945A, “Pyrimidine compound and pharmaceutically acceptable salts thereof” (Mitsui Petrochemical Industries, Ltd., priority 1990, dated 1994)

Legend:
[1] = test system: Mouse neuroblastoma cells NS-20Y; experiment: Neurite appearance in mouse neuroblastoma NS-20Y cells (Table 8); format: cell-based;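 also: cells grown in polyornithine-coated dishes, with timing counted from the start of culture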
mouse = experiment: Acute toxicity in mouse (Table 10); format: in vivo; conditions: i.p., 24 hours after administration
Experimental: The acute toxicity of the compounds of the invention was examined by the following method.
Male ddy-strain 5-week old mice, 4-6 per group, were used as experimental animals. Each of the compounds was dissolved or suspended in saline and administered perorally (p.o.) or intraperitoneally (i.p.), and the toxicity of the compound was assessed 24 hours after the administration.

Mouse neuro 2a cells = experiment: Neurite outgrowth of mouse neuroblastoma neuro 2a cells (Table 7); format: cell-based; conditions: mean ± S.D.
Experimental: The biological activities in vitro of the compounds of formula (I) on cells of the nervous system were tested. The cells tested were mouse neuroblastoma cell line neuro-2a (Dainippon Pharmaceutical Co., Ltd.) which have been established as the cells of the nervous system. The above nerve cells were grown in an incubator at 37° C. in the presence of 5% carbon dioxide gas exponentially, and the cultured for a certain period of time together with the compounds of formula (I).
The effects of the compounds of this invention on neuroblastoma cells were examined by the following method.
Mouse neuro 2a cells in the logarithmic growth period in the Dulbecco's modified Eagle's medium [DMEM, containing 100 units/ml of penicillin G sodium and 100 micrograms/ml of streptomycin sulfate] containing 10% of FCS were seeded in a 48-well plate so that the number of cells was 1,000 cells/well, and cultured for one day in 0.25 ml of the culture fluid in each well in an incubator containing 5% of carbon dioxide gas in air at 37° C. The medium was replaced by a medium containing each antibiotics and FCS and the cells were further cultured for 24 hours. Then, a 4% aqueous glutaraldehyde solution in the same amount as a medium (0.25 ml) was added, and the culture was left to stand at room temperature for 2 hours to fix the cells. After washing with water, a 0.05% aqueous solution of methylene blue was added to stain the cells. Under a microscope, the number of cells containing outgrown neurites (cells having at least one neurite with a length of at least two times as large as the long diameter of the cell) was counted visually, and the proportion of these cells in the entire cells was calculated. The well was observed over 5 or more visual fields (at least 2% of the entire surface area of the well) continuous to the left and right from a mark put at the center of the well, and more than 200 cells was counted. One drug compound was used in 6 different concentrations at most, and three runs were conducted for each concentration.

Row | SMILES | The number of cells in which neurites appeared/Total number of cells ([1]; 24 hour, 0.2 mM) | The number of cells in which neurites appeared/Total number of cells ([1]; 48 hour, 0.2 mM) | Estimated LD50 (mouse) [mg/kg] | Ratio of the number of cells having neurites with a length of at least two times as large as the diameter of cells to the total number of cells (Mouse neuro 2a cells; 0.01 mM) [%] | Ratio of the number of cells having neurites with a length of at least two times as large as the diameter of cells to the total number of cells (Mouse neuro 2a cells; 0.1 mM) [%] | Ratio of the number of cells having neurites with a length of at least two times as large as the diameter of cells to the total number of cells (Mouse neuro 2a cells; 0.3 mM) [%] | The number of cells in which neurites appeared/Total number of cells ([1]; 24 hour, 0.5 mM) | The number of cells in which neurites appeared/Total number of cells ([1]; 48 hour, 0.5 mM) | Ratio of the number of cells having neurites with a length of at least two times as large as the diameter of cells to the total number of cells (Mouse neuro 2a cells; 1 mM) [%] | Ratio of the number of cells having neurites with a length of at least two times as large as the diameter of cells to the total number of cells (Mouse neuro 2a cells; 0.03 mM) [%] | The number of cells in which neurites appeared/Total number of cells ([1]; 24 hour, 0.1 mM) | The number of cells in which neurites appeared/Total number of cells ([1]; 48 hour, 0.1 mM)
1 | CCOC(=O)C1CCN(c2nccc(N3CCCC3=O)n2)CC1 [Compound 376] | 5/50 | 5/50 | > 500 | 3.4 ± 0.6 | 4.4 ± 0.8 | 6.0 ± 0.5 |  |  |  |  |  | 
2 | O=C1CCCN1c1ccnc(N2CCNCC2)n1 [Compound 384] | 10/50 | 10/50 | > 500 | 4.1 ± 1.5 | 5.1 ± 2.1 | 8.3 ± 2.7 | 14/50 | 17/50 | 11.5 ± 1.3 |  |  | 
3 | O=C1CCCN1c1ccnc(N2CCOCC2)n1 [Compound 392] | 10/50 | 12/50 | > 500 |  | 5.6 ± 3.7 | 6.1 ± 4.0 | 15/50 | 21/50 |  | 6.6 ± 2.2 |  | 
4 | O=C1CCCN1c1ccnc(N2CCSCC2)n1 [Compound 400] | 8/50 | 11/50 | > 500 |  | 6.3 ± 0.7 | 11.2 ± 1.5 | 9/50 | 13/50 | 12.1 ± 1.4 | 5.0 ± 0.1 |  | 
5 | CN1CCN(c2nccc(N3CCCC3=O)n2)CC1 [Compound 408] | 7/50 | 8/50 | > 500 |  |  | 4.4 ± 0.2 | 10/50 | 11/50 |  | 4.9 ± 0.2 |  | 
6 | O=C1CCCN1c1ccnc(N2CCN(c3ccccc3)CC2)n1 [Compound 416] | 6/50 | 7/50 | > 500 | 5.0 ± 1.9 | 4.4 ± 0.4 | 5.1 ± 1.2 | 9/50 | 9/50 |  |  |  | 
7 | O=C1CCCN1c1ccnc(N2CCN(Cc3ccccc3)CC2)n1 [Compound 424] | 5/50 |  | > 500 |  | 5.9 ± 1.7 | 5.2 ± 2.5 |  |  |  | 4.5 ± 2.4 | 3/50 | 2/50
8 | CN(C)c1nccc(N2CCCC2=O)n1 [Compound 432] |  | 7/50 | > 500 |  | 4.2 ± 1.7 |  | 6/50 | 8/50 | 5.1 ± 1.2 | 4.0 ± 2.2 |  | 
9 | CCCCN(CCCC)c1nccc(N2CCCC2=O)n1 [Compound 440] |  |  | > 500 |  | 4.3 ± 0.8 |  | 4/50 |  |  |  | 3/50 | 4/50
